# In US10597388B2, “Pyridazinone herbicides” (FMC CORPORATION, priority 2014, dated 2020):
# Legend:
# Assay type in all cases: in vivo
# [1] = system: blackgrass (Alopecurus myosuroides); test: Test A greenhouse herbicide test, postemergence
# Procedure, shortened: (§1)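 Greenhouse postemergence test: formulated chemicals sprayed on one- to two-leaf plants (2 to 10 cm), grown in loam soil blended with sand. Injury assessed visually about 10 d later against untreated controls, scored 0 (no effect) to 100 (complete control).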
# [2] = system: galium (catchweed bedstraw, Galium aparine); test: Test A greenhouse herbicide test, postemergence
# Procedure, shortened: as §1
# [3] = system: barnyardgrass (Echinochloa crus-galli); test: Test C greenhouse herbicide test, pre- and postemergence
# Source text: (§2) Seeds of plant species selected from blackgrass (Alopecurus myosuroides), ryegrass, Italian (Italian ryegrass, Lolium multiflorum), wheat (winter wheat, Triticum aestivum), galium (catchweed bedstraw, Galium aparine), corn (Zea mays), large crabgrass, large (large crabgrass, Digitaria sanguinalis), foxtail, giant (giant foxtail, Setaria faberii), johnsongrass (Sorghum halepense), lambsquarters (Chenopodium album), morningglory (Ipomoea coccinea), nutsedge, yellow (yellow nutsedge, Cyperus esculentus), pigweed (Amaranthus retroflexus), ragweed (common ragweed, Ambrosia elatior), soybean (Glycine max), barnyardgrass (Echinochloa crus-galli), oilseed rape (Brassica napus), waterhemp (common waterhemp, Amaranthus rudis), and velvetleaf (Abutilon theophrasti) were planted into a blend of loam soil and sand and treated preemergence with test chemicals formulated in a non-phytotoxic solvent mixture which included a surfactant.
# (§3) At the same time, plants selected from these crop and weed species and also chickweed (common chickweed, Stellaria media), kochia (Kochia scoparia), and oat, wild (wild oat, Avena fatua), were planted in pots containing Redi-Earth® planting medium (Scotts Company, 14111 Scottslawn Road, Marysville, Ohio 43041) comprising spaghnum peat moss, vermiculite, wetting agent and starter nutrients and treated with postemergence applications of test chemicals formulated in the same manner. Plants ranged in height from 2 to 18 cm (1- to 4-leaf stage) for postemergence treatments. Treated plants and controls were maintained in a greenhouse for 13 to 15 d, after which time all species were compared to controls and visually evaluated. Plant response ratings, summarized in Table C, are based on a scale of 0 to 100 where 0 is no effect and 100 is complete control. A dash (-) response means no test result.
# [4] = system: crabgrass, large (large crabgrass, Digitaria sanguinalis); test: as above
# Source text: as §2, §3
# [5] = system: foxtail, giant (giant foxtail, Setaria faberii); test: as above
# Source text: as §2, §3
# [6] = system: galium (catchweed bedstraw, Galium aparine); test: as above
# Source text: as §2, §3
# [7] = system: johnsongrass (Sorghum halepense); test: as above
# Source text: as §2, §3
# [8] = system: lambsquarters (Chenopodium album); test: as above
# Source text: as §2, §3
# [9] = system: morningglory (Ipomoea coccinea); test: as above
# Source text: as §2, §3
# [10] = system: oilseed rape (Brassica napus); test: as above
# Source text: as §2, §3
# [11] = system: ragweed (common ragweed, Ambrosia elatior); test: as above
# Source text: as §2, §3
# [12] = system: ryegrass, Italian (Italian ryegrass, Lolium multiflorum); test: as above
# Source text: as §2, §3
# [13] = system: wheat (winter wheat, Triticum aestivum); test: as above
# Source text: as §2, §3
# [14] = 125 g ai/ha, visual rating after approx. 10 d, 0 to 100 scale (0 no effect, 100 complete control)
# [15] = 500 g ai/ha, 0 to 100 scale, 0 is no effect, 100 is complete control
# [16] = Postemergence, 31 g ai/ha, 0 to 100 scale (0 no effect, 100 complete control)
# [17] = Postemergence, 125 g ai/ha, scale 0 to 100, 0 is no effect, 100 is complete control
# [18] = Postemergence, 250 g ai/ha, scale 0 to 100, 0 no effect, 100 complete control, 13 to 15 d
# [19] = Preemergence, 31 g ai/ha, scale 0 to 100, 0 is no effect, 100 is complete control
# [20] = Preemergence, 62 g ai/ha, scale 0 to 100, 0 is no effect, 100 is complete control
# [21] = Preemergence, 125 g ai/ha, scale 0 to 100, 0 is no effect, 100 is complete control
# [22] = Preemergence, 250 g ai/ha, scale 0 to 100, 0 no effect, 100 complete control
# [23] = postemergence, 62 g ai/ha, scale 0 to 100, 0 no effect, 100 complete control
structure (smiles),measurement,setting,value
Cc1cc(C)c2ccccc2c1-c1c(O)c(C)nn(C)c1=O [Compound 21],"Plant response rating, Blackgrass",[1]; [14],90
same,Blackgrass plant response rating,[1]; [15],90
same,"Plant response rating, Galium",[2]; [14],100
same,Galium plant response rating,[2]; [15],100
same,Barnyardgrass plant response rating,[3]; [16],35
same,"Plant response rating, Barnyardgrass",[3]; [17],75
same,"Plant response rating, Barnyardgrass",[3]; [18],90
same,"Plant response rating, Barnyardgrass",[3]; [19],80
same,"Plant response rating, Barnyardgrass",[3]; [20],100
same,"Plant response rating, Barnyardgrass",[3]; [21],100
same,Barnyardgrass plant response rating,[3]; [22],100
same,Barnyardgrass plant response rating,[3]; [23],45
same,"Crabgrass, Large plant response rating",[4]; [16],30
same,"Plant response rating, Crabgrass, Large",[4]; [17],40
same,"Plant response rating, Crabgrass, Large",[4]; [18],55
same,"Plant response rating, Crabgrass, Large",[4]; [19],35
same,"Plant response rating, Crabgrass, Large",[4]; [20],85
same,"Plant response rating, Crabgrass, Large",[4]; [21],85
same,"Crabgrass, Large plant response rating",[4]; [22],100
same,"Crabgrass, Large plant response rating",[4]; [23],35
same,"Foxtail, Giant plant response rating",[5]; [16],55
same,"Plant response rating, Foxtail, Giant",[5]; [17],90
same,"Plant response rating, Foxtail, Giant",[5]; [18],95
same,"Plant response rating, Foxtail, Giant",[5]; [19],100
same,"Plant response rating, Foxtail, Giant",[5]; [20],100
same,"Plant response rating, Foxtail, Giant",[5]; [21],100
same,"Foxtail, Giant plant response rating",[5]; [22],100
same,"Foxtail, Giant plant response rating",[5]; [23],80
same,Galium plant response rating,[6]; [16],98
same,"Plant response rating, Galium",[6]; [17],100
same,"Plant response rating, Galium",[6]; [18],100
same,"Plant response rating, Galium",[6]; [19],98
same,"Plant response rating, Galium",[6]; [20],98
same,"Plant response rating, Galium",[6]; [21],98
same,Galium plant response rating,[6]; [22],100
same,Galium plant response rating,[6]; [23],100
same,Johnsongrass plant response rating,[7]; [16],10
same,"Plant response rating, Johnsongrass",[7]; [17],20
same,"Plant response rating, Johnsongrass",[7]; [18],35
same,"Plant response rating, Johnsongrass",[7]; [19],10
same,"Plant response rating, Johnsongrass",[7]; [20],10
same,"Plant response rating, Johnsongrass",[7]; [21],35
same,Johnsongrass plant response rating,[7]; [22],50
same,Johnsongrass plant response rating,[7]; [23],20
same,Lambsquarters plant response rating,[8]; [16],85
same,"Plant response rating, Lambsquarters",[8]; [17],95
same,"Plant response rating, Lambsquarters",[8]; [18],98
same,"Plant response rating, Lambsquarters",[8]; [19],90
same,"Plant response rating, Lambsquarters",[8]; [20],98
same,"Plant response rating, Lambsquarters",[8]; [21],98
same,Lambsquarters plant response rating,[8]; [22],100
same,Lambsquarters plant response rating,[8]; [23],90
same,Morningglory plant response rating,[9]; [16],85
same,"Plant response rating, Morningglory",[9]; [17],100
same,"Plant response rating, Morningglory",[9]; [18],100
same,"Plant response rating, Morningglory",[9]; [19],95
same,"Plant response rating, Morningglory",[9]; [20],98
same,"Plant response rating, Morningglory",[9]; [21],100
same,Morningglory plant response rating,[9]; [22],100
same,Morningglory plant response rating,[9]; [23],100
same,Oilseed Rape plant response rating,[10]; [16],65
same,"Plant response rating, Oilseed Rape",[10]; [17],100
same,"Plant response rating, Oilseed Rape",[10]; [18],100
same,"Plant response rating, Oilseed Rape",[10]; [19],90
same,"Plant response rating, Oilseed Rape",[10]; [20],100
same,"Plant response rating, Oilseed Rape",[10]; [21],100
same,Oilseed Rape plant response rating,[10]; [22],100
same,Oilseed Rape plant response rating,[10]; [23],80
same,Ragweed plant response rating,[11]; [16],85
same,"Plant response rating, Ragweed",[11]; [17],90
same,"Plant response rating, Ragweed",[11]; [18],95
same,"Plant response rating, Ragweed",[11]; [19],95
same,"Plant response rating, Ragweed",[11]; [20],100
same,"Plant response rating, Ragweed",[11]; [21],100
same,Ragweed plant response rating,[11]; [22],100
same,Ragweed plant response rating,[11]; [23],90
same,"Ryegrass, Italian plant response rating",[12]; [16],90
same,"Plant response rating, Ryegrass, Italian",[12]; [17],95
same,"Plant response rating, Ryegrass, Italian",[12]; [18],95
same,"Plant response rating, Ryegrass, Italian",[12]; [19],90
same,"Plant response rating, Ryegrass, Italian",[12]; [20],90
same,"Plant response rating, Ryegrass, Italian",[12]; [21],90
same,"Ryegrass, Italian plant response rating",[12]; [22],95
same,"Ryegrass, Italian plant response rating",[12]; [23],95
same,Wheat plant response rating,[13]; [16],0
same,"Plant response rating, Wheat",[13]; [17],35
same,"Plant response rating, Wheat",[13]; [18],35
same,"Plant response rating, Wheat",[13]; [20],5
same,"Plant response rating, Wheat",[13]; [21],30
same,Wheat plant response rating,[13]; [22],40
same,Wheat plant response rating,[13]; [23],5
